The target of data set [1] is T1, DAP epimerase (DapF).
T1 construct: C-terminal hexahistidine tag
Kind of data set: DAP dehydrogenase-coupled assay, […] h pre-incubation, slow-binding. In kind it is biochemical, Anabaena sp. YBS01.

In data set [2] the target is T2, DAP epimerase (DapF) (Arabidopsis thaliana, UniProt Q9LFG2).
T2 sequence (Q9LFG2 52-362): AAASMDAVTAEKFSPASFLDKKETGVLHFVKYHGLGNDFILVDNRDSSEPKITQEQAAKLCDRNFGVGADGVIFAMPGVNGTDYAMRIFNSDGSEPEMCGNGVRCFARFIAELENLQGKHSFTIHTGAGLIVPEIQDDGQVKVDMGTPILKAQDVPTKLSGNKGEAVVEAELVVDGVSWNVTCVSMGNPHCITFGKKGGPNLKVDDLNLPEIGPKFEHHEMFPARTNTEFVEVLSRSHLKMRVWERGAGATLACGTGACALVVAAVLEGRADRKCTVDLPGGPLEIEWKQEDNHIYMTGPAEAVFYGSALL
Put plainly: DAP dehydrogenase-coupled assay at […] inhibitor, time-dependent pre-incubation. In kind it is biochemical.

For data set [3], the target named is T1, DAP epimerase (DapF). Put plainly: X-ray crystal structure ([…] Å); DAP dehydrogenase-coupled inhibition assay after […] h incubation. In kind it is biochemical, Anabaena sp. YBS01.
Substrate in the data set “purified protein”: N[C@@H](CCC[C@H](N)C(=O)O)C(=O)O
Kind of data set: purified protein.

As usually defined, the IC50 is the concentration that gives 50% inhibition. High values mean lower potency, low ones higher potency. `C[C@](N)(CCC[C@H](N)C(=O)O)C(=O)O` [L,L-α-methylDAP]: on DAP epimerase (DapF) [1], the IC50 turned out to be 120 µM. The “DAP dehydrogenase-coupled assay at 250 μM inhibitor, time-dependent pre-incubati” value on DAP epimerase (DapF) [2] was “A. thaliana DapF behaved similarly to Anabaena DapF and activity decreased with increasing length of pre‐incubation”.
For the molecule `C[C@@](N)(CCC[C@H](N)C(=O)O)C(=O)O` [D,L-α-methylDAP, (2R,6S)‐2,6‐diamino‐2‐methylheptanedioic acid], the “DAP dehydrogenase-coupled assay at 250 μM inhibitor, time-dependent pre-incubati” value on DAP epimerase (DapF) [2] is “A. thaliana DapF behaved similarly to Anabaena DapF and activity decreased with increasing length of pre‐incubation”. At DAP epimerase (DapF) [3], this molecule returned a 50% inhibitory concentration (IC50) of 160 µM.

B1: DAP epimerase (DapF) (Arabidopsis thaliana) (protein)
chain: AAASMDAVTAEKFSPASFLDKKETGVLHFVKYHGLGNDFILVDNRDSSEPKITQEQAAKLCDRNFGVGADGVIFAMPGVNGTDYAMRIFNSDGSEPEMCGNGVRCFARFIAELENLQGKHSFTIHTGAGLIVPEIQDDGQVKVDMGTPILKAQDVPTKLSGNKGEAVVEAELVVDGVSWNVTCVSMGNPHCITFGKKGGPNLKVDDLNLPEIGPKFEHHEMFPARTNTEFVEVLSRSHLKMRVWERGAGATLACGTGACALVVAAVLEGRADRKCTVDLPGGPLEIEWKQEDNHIYMTGPAEAVFYGSALL
What is called Km is the concentration of substrate that gives half-maximal velocity. With B1, the Km in “purified protein” came to 68 µM.

The values above are taken from PMC12039745, “Structure and inhibition of diaminopimelic acid epimerase by slow‐binding α‐methyl amino acids” (Protein Science : A Publication of the Protein Society, 2025).
